# Source: patent publication US20150291598A1 (NOVARTIS AG, priority 2012, published 2015)
# Test system: P. falciparum (NF54 or 3D7 strain)
# Experiment: Assay for P. falciparum proliferation in infected human blood cells (SYBR Green)
# Assay type: cell-based, Plasmodium falciparum
# Settings: Plasmodium falciparum, Erythrocyte, 72 h, NF54 or 3D7 infected human erythrocytes, 72 hours; read-out: EC50 (nM), inhibitory efficacy in delaying P. falciparum proliferation in infected human blood cells
# Summary of the method: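 Infected erythrocytes (NF54 or 3D7; final 2.5% hematocrit, 0.3% parasitemia) were incubated with compounds for 72 h at 37 °C in low oxygen (3% O2, 4% CO2, 93% N2).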
row,Compound,EC50
1,"CN(C)c1ccc(-c2cnc3cnc(C(=O)N(C)c4ccc(S(C)(=O)=O)cc4)cn23)cc1 [Compound 164, 3-[4-(dimethylamino)phenyl]-N-(4-methanesulfonylphenyl)-N-methylimidazo[1,2-a]pyrazine-6-carboxamide]",961 nM
2,"NC(=O)c1ccc(-c2cn3c(-c4ccc(C(N)=O)cc4)cnc3cn2)cc1 [Compound 210, 4-[3-(4-carbamoylphenyl)imidazo[1,2-a]pyrazin-6-yl]benzamide]",1980 nM
3,"COc1ncccc1N(C)C(=O)c1cn2c(-c3ccc(C(F)(F)F)cc3)cnc2cn1 [Compound 492, N-(2-methoxypyridin-3-yl)-N-methyl-3-[4-(trifluoromethyl)phenyl]imidazo[1,2-a]pyrazine-6-carboxamide]",377 nM
4,"CN(C(=O)c1cn2c(-c3ccc4c(cnn4C)c3)cnc2cn1)c1ccc(C#N)cn1 [Compound 83, N-(5-cyanopyridin-2-yl)-N-methyl-3-(1-methyl-1H-indazol-5-yl)imidazo[1,2-a]pyrazine-6-carboxamide]",1570 nM
5,"CN(C(=O)c1cn2c(-c3ccc(N)nc3)cnc2cn1)c1ccc(C#N)cc1 [Compound 272, 3-(6-aminopyridin-3-yl)-N-(4-cyanophenyl)-N-methylimidazo[1,2-a]pyrazine-6-carboxamide]",295 nM
6,"CN(C(=O)c1cn2c(-c3ccc(-n4cccn4)cc3)cnc2cn1)c1ccc(F)cc1 [Compound 151, N-(4-fluorophenyl)-N-methyl-3-[4-(1H-pyrazol-1-yl)phenyl]imidazo[1,2-a]pyrazine-6-carboxamide]",673 nM
7,"CC(=O)c1ccc(N(C)C(=O)c2cn3c(-c4ccc(C(F)(F)F)cc4)cnc3cn2)cc1 [Compound 425, N-(4-acetylphenyl)-N-methyl-3-[4-(trifluoromethyl)phenyl]imidazo[1,2-a]pyrazine-6-carboxamide]",1020 nM
8,"CNc1ccc(-c2cnc3cnc(C(=O)N(C)c4ccc(Cl)nc4)cn23)cn1 [Compound 407, N-(6-chloropyridin-3-yl)-N-methyl-3-[6-(methylamino)pyridin-3-yl]imidazo[1,2-a]pyrazine-6-carboxamide]",> 8970 nM
9,"COc1ccnc(N(C)C(=O)c2cn3c(-c4ccc(C(F)(F)F)cc4)cnc3cn2)c1 [Compound 358, -(4-methoxypyridin-2-yl)-N-methyl-3-[4-(trifluoromethyl)phenyl]imidazo[1,2-a]pyrazine-6-carboxamide]",1170 nM
10,"CC(C)c1nc(-c2cnc3cnc(C(=O)N(C)c4ccc(Cl)nc4)cn23)cs1 [Compound 364, N-(6-chloropyridin-3-yl)-N-methyl-3-[2-(propan-2-yl)-1,3-thiazol-4-yl]imidazo[1,2-a]pyrazine-6-carboxamide]",8240 nM
11,"COc1ccc(-c2cnc3cnc(C(=O)N(C)c4ccc(C#N)cc4)cn23)c(C)c1 [Compound 441, N-(4-cyanophenyl)-3-(4-methoxy-2-methylphenyl)-N-methylimidazo[1,2-a]pyrazine-6-carboxamide]",6500 nM
12,"CC(N)C(=O)Nc1ccc(-c2cnc3cnc(C(=O)N(C)c4ccc(C#N)cc4)cn23)cc1 (stereo in doubt) [Compound 271, 3-{4-[(2S)-2-aminopropanamido]phenyl}-N-(4-cyanophenyl)-N-methylimidazo[1,2-a]pyrazine-6-carboxamide]",207 nM
13,"CS(=O)(=O)c1ccc2c(c1)CCCN2C(=O)c1cn2c(-c3ccc(C(F)(F)F)cc3)cnc2cn1 [Compound 316, 6-methanesulfonyl-1-({3-[4-(trifluoromethyl)phenyl]imidazo[1,2-a]pyrazin-6-yl}carbonyl)-1,2,3,4-tetrahydroquinoline]",1890 nM
14,"CN(C(=O)c1cn2c(-c3ccc(C(F)(F)F)cc3)cnc2cn1)c1cccc(F)c1 [Compound 137, N-(3-fluorophenyl)-N-methyl-3-[4-(trifluoromethyl)phenyl]imidazo[1,2-a]pyrazine-6-carboxamide]",226 nM
15,"COc1ccc(-c2cnc3cnc(C(=O)N(C)c4ccc(F)c(F)c4)cn23)cc1 [Compound 431, N-(3,4-difluorophenyl)-3-(4-methoxyphenyl)-N-methylimidazo[1,2-a]pyrazine-6-carboxamide]",82 nM
16,"CN(C(=O)c1cn2c(-c3ccc(C(F)(F)F)cc3)cnc2cn1)c1ccc(Cl)cn1 [Compound 435, N-(5-chloropyridin-2-yl)-N-methyl-3-[4-(trifluoromethyl)phenyl]imidazo[1,2-a]pyrazine-6-carboxamide]",214 nM
17,"CN(C)c1ccc(-c2cnc3cnc(C(=O)N(C)c4ccc(Cl)nc4)cn23)cn1 [Compound 357, N-(6-chloropyridin-3-yl)-3-[6-(dimethylamino)pyridin-3-yl]-N-methylimidazo[1,2-a]pyrazine-6-carboxamide]",5490 nM
18,"CN(C(=O)c1cn2c(-c3ccc(C(C)(C)C)cc3)cnc2cn1)c1ccc(C#N)cc1 [Compound 118, 3-(4-tert-butylphenyl)-N-(4-cyanophenyl)-N-methylimidazo[1,2-a]pyrazine-6-carboxamide]",135 nM

row,Compound,EC50
1,"CN(C)c1cccc(-c2cnc3cnc(C(=O)N(C)c4ccc(C#N)cc4)cn23)c1 [Compound 438, N-(4-cyanophenyl)-3-[3-(dimethylamino)phenyl]-N-methylimidazo[1,2-a]pyrazine-6-carboxamide]",> 10000 nM
2,"CN(C(=O)c1cn2c(-c3cnn(C)c3)cnc2cn1)c1ccc(C#N)cc1 [Compound 189, N-(4-cyanophenyl)-N-methyl-3-(1-methyl-1H-pyrazol-4-yl)imidazo[1,2-a]pyrazine-6-carboxamide]",7890 nM
3,"CCc1ccnc(NC(=O)c2cn3c(-c4ccc(C(F)(F)F)cc4)cnc3cn2)c1 [Compound 334, N-(4-ethylpyridin-2-yl)-3-[4-(trifluoromethyl)phenyl]imidazo[1,2-a]pyrazine-6-carboxamide]",> 5190 nM
4,"CN(C(=O)c1cn2c(-c3ccc(Cl)cn3)cnc2cn1)c1ccc(C#N)cc1 [Compound 196, 3-(5-chloropyridin-2-yl)-N-(4-cyanophenyl)-N-methylimidazo[1,2-a]pyrazine-6-carboxamide]",9350 nM
5,"COC(=O)c1ccc(-c2cnc3cnc(C(=O)N(C)c4ccc(C#N)cc4)cn23)cc1 [Compound 166, methyl 4-{6-[(4-cyanophenyl)(methyl)carbamoyl]imidazo[1,2-a]pyrazin-3-yl}benzoate]",206 nM
6,"Cc1ccc(-c2cnc3cnc(C(=O)N(C)c4ccc(C#N)cc4)cn23)cc1 [Compound 113, N-(4-cyanophenyl)-N-methyl-3-(4-methylphenyl)imidazo[1,2-a]pyrazine-6-carboxamide]",81 nM
7,"O=C1CCCCN1Cc1cn2c(-c3ccc(C(F)(F)F)cc3)cnc2cn1 [Compound 426, 1-({3-[4-(trifluoromethyl)phenyl]imidazo[1,2-a]pyrazin-6-yl}methyl)piperidin-2-one]",1950 nM
8,"Cc1ccc(N(C)Cc2cn3c(-c4ccc(C(F)(F)F)cc4)cnc3cn2)cc1 [Compound 263, N,4-dimethyl-N-({3-[4-(trifluoromethyl)phenyl]imidazo[1,2-a]pyrazin-6-yl}methyl)aniline]",436 nM
9,"CN(C(=O)c1cn2c(-c3ccc(C(F)(F)F)cc3)cnc2cn1)c1ccccc1C(F)(F)F [Compound 171, N-methyl-N-[2-(trifluoromethyl)phenyl]-3-[4-(trifluoromethyl)phenyl]imidazo[1,2-a]pyrazine-6-carboxamide]",4010 nM
10,"CN(C(=O)c1cn2c(-c3ccc(C(N)=O)cc3)cnc2cn1)c1ccc(C#N)cn1 [Compound 98, 3-(4-carbamoylphenyl)-N-(5-cyanopyridin-2-yl)-N-methylimidazo[1,2-a]pyrazine-6-carboxamide]",1500 nM
11,"CCN(CC)C(=O)c1ccc(-c2cnc3cnc(C(=O)N(C)c4ccc(C#N)cc4)cn23)cc1 [Compound 188, N-(4-cyanophenyl)-3-[4-(diethylcarbamoyl)phenyl]-N-methylimidazo[1,2-a]pyrazine-6-carboxamide]",> 10000 nM
12,"CN(C(=O)c1cn2c(-c3ccc(NC(=O)CN)cc3)cnc2cn1)c1ccc(C#N)cc1 [Compound 247, 3-[4-(2-aminoacetamido)phenyl]-N-(4-cyanophenyl)-N-methylimidazo[1,2-a]pyrazine-6-carboxamide]",611 nM
13,"CNc1ccc(-c2cnc3cnc(C(=O)N(C)c4ccc(Cl)nc4)cn23)cc1 [Compound 398, N-(6-chloropyridin-3-yl)-N-methyl-3-[4-(methylamino)phenyl]imidazo[1,2-a]pyrazine-6-carboxamide]",6840 nM
14,"COc1ncc(N(C)C(=O)c2cn3c(-c4ccc(C(F)(F)F)cc4)cnc3cn2)cc1C [Compound 288, N-(6-methoxy-5-methylpyridin-3-yl)-N-methyl-3-[4-(trifluoromethyl)phenyl]imidazo[1,2-a]pyrazine-6-carboxamide]",565 nM
15,"CN(C(=O)c1cn2c(-c3ccc(C(F)(F)F)cc3Cl)cnc2cn1)c1ccc(C#N)cc1 [Compound 31, 3-[2-chloro-4-(trifluoromethyl)phenyl]-N-(4-cyanophenyl)-N-methylimidazo[1,2-a]pyrazine-6-carboxamide]",1200 nM
16,"CCOc1ccnc(N(C)C(=O)c2cn3c(-c4ccc(C(F)(F)F)cc4)cnc3cn2)c1 [Compound 310, N-(4-ethoxypyridin-2-yl)-N-methyl-3-[4-(trifluoromethyl)phenyl]imidazo[1,2-a]pyrazine-6-carboxamide]",2480 nM
17,"CN(C(=O)c1cn2c(-c3ccc(-c4nnc(N)s4)cc3)cnc2cn1)c1ccc(C#N)cc1 [Compound 74, 3-[4-(5-amino-1,3,4-thiadiazol-2-yl)phenyl]-N-(4-cyanophenyl)-N-methylimidazo[1,2-a]pyrazine-6-carboxamide]",24 nM
18,"COc1cccc(N(C)C(=O)c2cn3c(-c4ccc(C(F)(F)F)cc4)cnc3cn2)c1 [Compound 440, N-(3-methoxyphenyl)-N-methyl-3-[4-(trifluoromethyl)phenyl]imidazo[1,2-a]pyrazine-6-carboxamide]",140 nM
